# How the values were obtained:
# [1] = system: ZR75-1 human breast cancer cells; experiment: Soft agar growth of ZR75-1 cells; type: cell-based; details: for inhibition of cell growth: every 48 hours for three times (Examples 24, 25)
# Method: (§1) Cells (10^4 cells/well) were seeded in 0.5 ml of 0.3% Difco Noble agar (Difco, Detroit, Mich.) supplemented with complete culture medium. This suspension was layered over 0.5 ml of 0.8% agar-medium base layer in 24 multiwell cluster dishes (Becton Dickinson) and treated with various concentrations of docetaxel (day 0). […] Twelve days after the last treatment, cells were stained with nitroblue tetrazolium (Sigma) and colonies larger than 0.05 mm were counted.
# as §1
# (§2) Soft agar growth. Cells (10^4 cells/well) were seeded in 0.5 ml of 0.3% Difco Noble agar (Difco, Detroit, Mich.) supplemented with complete culture medium. This suspension was layered over 0.5 ml of 0.8% agar-medium base layer in 24 multiwell cluster dishes (Becton Dickinson) and treated with various concentrations of docetaxel (day 0). The HYB 165 was added after 12 hrs (day 1) and on day 3. Twelve days after the last treatment, cells were stained with nitroblue tetrazolium (Sigma) and colonies larger than 0.05 mm were counted.
# as §2, with “508” for “165”, “hrs” for “hrs (day 1)”, “2, 3 and 4. After 12” for “3. Twelve”, “days” for “days after”, “the” for “the last treatment,”
# Soft agar growth. Cells (10^4 cells/well) were seeded in 0.5 ml of 0.3% Difco Noble agar (Difco, Detroit, Mich.) supplemented with complete culture medium. […] After 12 days the cells were stained with nitroblue tetrazolium (Sigma) and colonies larger than 0.05 mm were counted.
# as §2, with “of” for “of docetaxel (day 0). The”, “or HYB295 every 48 hours for three times. After” for “was added after”, “12” for “12 hrs (day 1) and on day 3. Twelve”, “days” for “days after”, “the” for “the last treatment,”, “(Sigma, St. Louis, Mo.)” for “(Sigma)”
# as §2, with “of” for “of docetaxel (day 0). The”, “or HYB508 every 48 hours for three times. After” for “was added after”, “12” for “12 hrs (day 1) and on day 3. Twelve”, “days” for “days after”, “the” for “the last treatment,”, “(Sigma, St. Louis, Mo.)” for “(Sigma)”
# [2] = system: GEO human colon cancer cells; experiment: Soft agar growth of GEO cells; type: cell-based
# Method: as §2, with “Cells” for “Soft agar growth. Cells”, “paclitaxel” for “docetaxel”, “2, 3 and 4. 12” for “3. Twelve”
# [3] = system: 1A9PTX10 human ovarian cancer cells; experiment: Soft agar growth of 1A9PTX10 cells; type: cell-based
# Method: Cell lines. The 1A9PTX10 cell line, a paclitaxel (PTX)-resistant clone of the human ovarian carcinoma cell line 1A9, was isolated by exposing 1A9 cells to 5 ng/ml PTX in the presence of 5 μg/ml verapamil, a P glicoprotein antagonist. 1A9PTX10 cells were kindly provided by Dr. Giannakakou, NCI Bethesda, Md., USA. Cells were maintained in RPMI medium supplemented with 10% heat-inactivated FBS, 20 mM HEPES, pH 7.4, penicillin (100 UI/ml), streptomycin (100 μg/ml) and 4 mM glutamine (ICN, Irvine, UK) 15 ng/ml PTX and 5 μg/ml verapamil in a humified atmosphere of 95% air and 5% CO2 at 37° C. 7 days before experiments were performed, PTX and verapamil were removed from culture medium.
# as §2, with “of” for “of docetaxel (day 0). The”, “or HYB508 every 48 hours for three times. After” for “was added after”, “12” for “12 hrs (day 1) and on day 3. Twelve”, “days” for “days after”, “the” for “the last treatment,”, “(Sigma, St. Louis, Mo.)” for “(Sigma)”
# TGFα = experiment: Histochemical analysis of GEO tumors: TGFα; type: in vivo; details: single agent, after two cycles
# From the text: Tumor specimens from the different groups of mice were examined by histochemical analysis at different time points to evaluate the expression of a variety of biological parameters.
# TGFα and AR are growth factors which bind to EGFR and control human colon cancer growth through autocrine and paracrine mechanisms (F. Ciardiello and G. Tortora, Clin. Cancer Res. 4:821–828 (1998); D. S. Salomon, Crit. Rev. Oncol. Hematol. 19:183–232 (1995)).
# [4] = system: 1A9 human ovarian cancer cells; experiment: Soft agar growth of 1A9 cells; type: cell-based
# Method: Cell lines. The 1A9 cell line is a clone of the human ovarian carcinoma cell line, A2780. 1A9 cells were kindly provided by Giannakakou, NCI Bethesda, Md., USA. Cells were maintained in RPMI medium supplemented with 10% heat-inactivated FBS, 20 mM HEPES, pH 7.4 penicillin (100 UI/ml), streptomycin (100 μg/ml) and 4 mM glutamine (ICN, Irvine, UK) in a humified atmosphere of 95% air and 5% CO2 at 37° C.
# as §2, with “of” for “of docetaxel (day 0). The”, “or HYB508 every 48 hours for three times. After” for “was added after”, “12” for “12 hrs (day 1) and on day 3. Twelve”, “days” for “days after”, “the” for “the last treatment,”, “(Sigma, St. Louis, Mo.)” for “(Sigma)”
substance,measurement,setting,value
"HYB 165: Hybrid 18-mer mixed backbone antisense to PKA RIα, GCGUGCCTCCTCACUGGC (SEQ ID NO:4), 2-O-methyl ribonucleotides at 5′ and 3′ ends (sugars by position and backbone not given here; 2'-O-methyl ribonucleotides at both ends, mixed backbone)",inhibition of cell growth,[1]; 0.1 μM,approximately 5%
same,inhibition of cell growth,[1]; 1 μM,about 34%
same,inhibition of cell growth,[1]; 2.5 μM,over 85%
same,growth inhibition,"[1]; HYB 165 0.1 μM + C225 0.25 μg/ml (days 1, 3) after docetaxel 0.01 nM (day 0)",93%
same,growth inhibition,[1]; HYB 165 0.1 μM + MAb C225 0.25 μg/ml,37%
same,growth inhibition,[1]; HYB 165 0.1 μM + MAb C225 0.5 μg/ml,65%
same,growth inhibition,[1]; HYB 165 0.1 μM + MAb C225 1 μg/ml,85%
same,growth inhibition,[1]; HYB 165 0.1 μM + MAb C225 2.5 μg/ml,90%
same,growth inhibition,[1]; HYB 165 0.1 μM after docetaxel 0.01 nM,40%
same,growth inhibition,[1]; HYB 165 0.1 μM after docetaxel 0.03 nM,70%
same,growth inhibition,[1]; HYB 165 0.1 μM after docetaxel 0.1 nM,86%
same,growth inhibition,[1]; HYB 165 0.1 μM after docetaxel 0.3 nM,97%
same,growth inhibition,[1]; HYB 165 0.1 μM alone (Example 13),about 8%
same,growth inhibition,[1]; HYB 165 0.1 μM alone (Example 21),about 5%
same,growth inhibition,[1]; HYB 165 0.1 μM alone (Example 23),about 2%
same,growth inhibition,[1]; HYB 165 0.5 μM + MAb C225 0.25 μg/ml,57%
same,growth inhibition,[1]; HYB 165 0.5 μM + MAb C225 0.5 μg/ml,70%
same,growth inhibition,[1]; HYB 165 0.5 μM + MAb C225 1 μg/ml,90%
same,growth inhibition,[1]; HYB 165 0.5 μM + MAb C225 2.5 μg/ml,98%
same,growth inhibition,[1]; HYB 165 0.5 μM after docetaxel 0.01 nM,65%
same,growth inhibition,[1]; HYB 165 0.5 μM after docetaxel 0.03 nM,66%
same,growth inhibition,[1]; HYB 165 0.5 μM after docetaxel 0.3 nM,99%
same,growth inhibition,[1]; HYB 165 0.5 μM after docetaxel 0.1 1 nM,86%
same,growth inhibition,[1]; HYB 165 0.5 μM alone (Example 21),about 15%
same,growth inhibition,[1]; HYB 165 0.5 μM alone (Example 23),about 10%
same,cooperative effect of the combination,[1]; sequential combination with different doses of docetaxel,cooperatively inhibits the growth of ZR75-1 cells
same,cooperative effect of the combination,[1]; with MAb C225 0.25 μg/ml and docetaxel 0.01 nM,cooperatively inhibit the growth of ZR75-1 cells
same,cooperative effect of the combination,[1]; with different doses of MAb C225,cooperatively inhibit the growth of ZR-75-1 cells
same,growth inhibition,[2]; HYB 165 0.5 μM after paclitaxel 1 nM,40%
same,growth inhibition,[2]; HYB 165 0.5 μM after paclitaxel 5 nM,62%
same,growth inhibition,[2]; HYB 165 0.5 μM after paclitaxel 10 nM,86%
same,growth inhibition,[2]; HYB 165 0.5 μM alone,about 20%
same,cooperative effect of the combination,"[2]; HYB 165 0.5 μM, sequential combination with different doses of paclitaxel",cooperatively inhibit the growth of GEO cells
same,inhibition of cell growth,[3]; 0.1 μM,approximately 5%
same,inhibition of cell growth,[3]; 0.5 μM,about 43%
same,inhibition of cell growth,[3]; 1 μM,about 70%
same,inhibition of cell growth,[3]; 2.5 μM,over 85%
same,expression of TGFα,TGFα,inhibited the expression of TGF α and AR
same,inhibition of cell growth,[4]; 0.1 μM,approximately 5%
same,inhibition of cell growth,[4]; 0.5 μM,about 41%
same,inhibition of cell growth,[4]; 1 μM,about 90%
same,inhibition of cell growth,[4]; 2.5 μM,over 95%
